Assay results taken from US20120165223A1 (priority 2006, published 2012).

Test system: crypt cells of the colon of HFA mice
Assay: DNA chip showing specific responses to human intestinal normal bacterial flora, colistin-treated HFA mice
Settings: 500 μg/Ml in drinking water three weeks
[1] = colon crypt cells, then halted one week

Description: The colon is collected and the gene expression of crypt cells obtained from the colon is compared with the control group (HFA mice).
In other words, the material or the food is orally administered to HFA mice, which are autopsied along with control HFA mice not having been administered. The crypt cells of the colon are collected to separate RNA. Next, the separated RNA is amplified and Cy3 fluorescence material is labelled on the genes of HFA mice and Cy5 fluorescence material is labelled on the genes of the administered group to react with the gene chip which is a product of the present invention to get the difference of expressions of the 90 genes.
RNA is collected and amplified from the crypt cells of the colon to manufacture a DNA chip, which is reacted with RNA of HFA mice being the control group. The degree of expressing genes and the change of composition of intestinal normal bacterial flora of the colon and the activity of the enzymes produced by the human intestinal bacterial flora such as glucuomidase, glucosidase, nitrate reductase and azoreductase are investigated and used as an index showing the disruption of the human intestinal normal bacterial flora.

colistin sulfate
Disruption of the human intestinal normal bacterial flora, recovery after stop of administration (one week after stop): not recovered in one week after the administration of colistin is stopped | Number of genes in total showing a difference by more than 1.5 times in comparison with the control group (then halted one week): 38 genes | Number of the 90 genes with the same tendency of increase and decrease as observed when the flora is disturbed (then halted one week): 25 genes | 1110037F02Rik gene expression HFA-Coli/HFA [1]: 13.33 | 1110037F02Rik gene expression, HFA-Coli [1]: 133.2 | 1110038M16Rik gene expression HFA-Coli/HFA [1]: 1.355 | 1110038M16Rik gene expression, HFA-Coli [1]: 195.8 | 1700012H17Rik gene expression HFA-Coli/HFA [1]: 0.969 | 1700012H17Rik gene expression, HFA-Coli [1]: 594.0 | 2610529I12Rik gene expression HFA-Coli/HFA [1]: 1.049 | 2610529I12Rik gene expression, HFA-Coli [1]: 1108 | 4732481h14Rik gene expression HFA-Coli/HFA [1]: 0.750 | 4732481h14Rik gene expression, HFA-Coli [1]: 209.2 | 4930455F23Rik gene expression HFA-Coli/HFA [1]: 0.851 | 4930455F23Rik gene expression, HFA-Coli [1]: 634.5 | 5031404N19 gene expression HFA-Coli/HFA [1]: 0.956 | 5031404N19 gene expression, HFA-Coli [1]: 444.2 | 5430437F03Rik gene expression HFA-Coli/HFA [1]: 1.826 | 5430437F03Rik gene expression, HFA-Coli [1]: 485.8 | 6330590F17Rik gene expression HFA-Coli/HFA [1]: 1.341 | 6330590F17Rik gene expression, HFA-Coli [1]: 84.50 | 9830148O20Rik gene expression HFA-Coli/HFA [1]: 1.400 | 9830148O20Rik gene expression, HFA-Coli [1]: 815.0 | Alas1 gene expression HFA-Coli/HFA [1]: 1.857 | Alas1 gene expression, HFA-Coli [1]: 577.0 | Aldh6a1 gene expression HFA-Coli/HFA [1]: 0.971 | Aldh6a1 gene expression, HFA-Coli [1]: 286.5 | Au043625 gene expression HFA-Coli/HFA [1]: 1.167 | Au043625 gene expression, HFA-Coli [1]: 336.5 | Bnip3l gene expression HFA-Coli/HFA [1]: 1.753 | Bnip3l gene expression, HFA-Coli [1]: 729.5 | C130039O16 gene expression HFA-Coli/HFA [1]: 1.160 | C130039O16 gene expression, HFA-Coli [1]: 680.0 | CPd gene expression HFA-Coli/HFA [1]: 0.848 | CPd gene expression, HFA-Coli [1]: 587.8 | Cacnb3 gene expression HFA-Coli/HFA [1]: 0.649 | Cacnb3 gene expression, HFA-Coli [1]: 661.2 | Cav gene expression HFA-Coli/HFA [1]: 1.029 | Cav gene expression, HFA-Coli [1]: 206.0 | Ccnd2 gene expression HFA-Coli/HFA [1]: 0.839 | Ccnd2 gene expression, HFA-Coli [1]: 315.5 | Cdc45l gene expression HFA-Coli/HFA [1]: 1.652 | Cdc45l gene expression, HFA-Coli [1]: 100.8 | Cited1 gene expression HFA-Coli/HFA [1]: 1.222 | Cited1 gene expression, HFA-Coli [1]: 289.0 | Ckap2 gene expression HFA-Coli/HFA [1]: 1.661 | Ckap2 gene expression, HFA-Coli [1]: 548.0 | Cldn8 gene expression HFA-Coli/HFA [1]: 1.195 | Cldn8 gene expression, HFA-Coli [1]: 406.5 | Col3a1 gene expression HFA-Coli/HFA [1]: 2.136 | Col3a1 gene expression, HFA-Coli [1]: 441.0 | Cotl11 gene expression HFA-Coli/HFA [1]: 1.883 | Cotl11 gene expression, HFA-Coli [1]: 1227 | Crem gene expression HFA-Coli/HFA [1]: 0.890 | Crem gene expression, HFA-Coli [1]: 355.8 | Crsp7 gene expression HFA-Coli/HFA [1]: 2.045 | Crsp7 gene expression, HFA-Coli [1]: 1218 | Cul4b gene expression HFA-Coli/HFA [1]: 1.715 | Cul4b gene expression, HFA-Coli [1]: 91.75 | D230019K24Rik gene expression HFA-Coli/HFA [1]: 2.598 | D230019K24Rik gene expression, HFA-Coli [1]: 142.2 | Daf1 gene expression HFA-Coli/HFA [1]: 2.085 | Daf1 gene expression, HFA-Coli [1]: 419.0 | Dap3 gene expression HFA-Coli/HFA [1]: 1.274 | Dap3 gene expression, HFA-Coli [1]: 634.5 | Dcamkl1 gene expression HFA-Coli/HFA [1]: 0.679 | Dcamkl1 gene expression, HFA-Coli [1]: 615.2 | Ddx1 gene expression HFA-Coli/HFA [1]: 1.094 | Ddx1 gene expression, HFA-Coli [1]: 370.0 | Eif2ak3 gene expression HFA-Coli/HFA [1]: 1.274 | Eif2ak3 gene expression, HFA-Coli [1]: 685.0 | Epc1 gene expression HFA-Coli/HFA [1]: 1.452 | Epc1 gene expression, HFA-Coli [1]: 228.8 | Fads3 gene expression HFA-Coli/HFA [1]: 1.422 | Fads3 gene expression, HFA-Coli [1]: 409.2 | Fn3k gene expression HFA-Coli/HFA [1]: 0.785 | Fn3k gene expression, HFA-Coli [1]: 415.5 | Gmnn gene expression HFA-Coli/HFA [1]: 0.997 | Gmnn gene expression, HFA-Coli [1]: 673.8 | Gstm2 gene expression HFA-Coli/HFA [1]: 0.944 | Gstm2 gene expression, HFA-Coli [1]: 164.8 | Guca1a gene expression HFA-Coli/HFA [1]: 1.553 | Guca1a gene expression, HFA-Coli [1]: 417.0 | Hdac5 gene expression HFA-Coli/HFA [1]: 0.949 | Hdac5 gene expression, HFA-Coli [1]: 473.8 | Hsd17b2 gene expression HFA-Coli/HFA [1]: 1.453 | Hsd17b2 gene expression, HFA-Coli [1]: 1737 | Igj gene expression HFA-Coli/HFA [1]: 0.888 | Igj gene expression, HFA-Coli [1]: 210.5 | Il16 gene expression HFA-Coli/HFA [1]: 1.470 | Il16 gene expression, HFA-Coli [1]: 568.0 | Il18 gene expression HFA-Coli/HFA [1]: 1.094 | Il18 gene expression, HFA-Coli [1]: 531.5 | Ipo4 gene expression HFA-Coli/HFA [1]: 2.566 | Ipo4 gene expression, HFA-Coli [1]: 140.5 | Keap1 gene expression HFA-Coli/HFA [1]: 0.687 | Keap1 gene expression, HFA-Coli [1]: 564.0 | Klf3 gene expression HFA-Coli/HFA [1]: 0.764 | Klf3 gene expression, HFA-Coli [1]: 195.8 | Lnx1 gene expression HFA-Coli/HFA [1]: 0.171 | Lnx1 gene expression, HFA-Coli [1]: 98.25 | Lrp10 gene expression HFA-Coli/HFA [1]: 2.132 | Lrp10 gene expression, HFA-Coli [1]: 1648 | Mcpt4 gene expression HFA-Coli/HFA [1]: 1.505 | Mcpt4 gene expression, HFA-Coli [1]: 181.8 | Mllt1 gene expression HFA-Coli/HFA [1]: 0.781 | Mllt1 gene expression, HFA-Coli [1]: 502.8 | Mpp1 gene expression HFA-Coli/HFA [1]: 0.874 | Mpp1 gene expression, HFA-Coli [1]: 638.0 | Mt-1 gene expression HFA-Coli/HFA [1]: 3.610 | Mt-1 gene expression, HFA-Coli [1]: 2033 | Mtmr7 gene expression HFA-Coli/HFA [1]: 2.084 | Mtmr7 gene expression, HFA-Coli [1]: 173.0 | Mut gene expression HFA-Coli/HFA [1]: 1.238 | Mut gene expression, HFA-Coli [1]: 999.5 | Ncoa6 gene expression HFA-Coli/HFA [1]: 3.070 | Ncoa6 gene expression, HFA-Coli [1]: 374.5 | Npm1 gene expression HFA-Coli/HFA [1]: 1.840 | Npm1 gene expression, HFA-Coli [1]: 350.0 | Parva gene expression HFA-Coli/HFA [1]: 1.330 | Parva gene expression, HFA-Coli [1]: 153.0 | Per1 gene expression HFA-Coli/HFA [1]: 1.227 | Per1 gene expression, HFA-Coli [1]: 803.5 | Plp gene expression HFA-Coli/HFA [1]: 1.232 | Plp gene expression, HFA-Coli [1]: 2108 | Prkrir gene expression HFA-Coli/HFA [1]: 0.644 | Prkrir gene expression, HFA-Coli [1]: 510.0 | Ptgs1 gene expression HFA-Coli/HFA [1]: 2.280 | Ptgs1 gene expression, HFA-Coli [1]: 2454 | Ptgs2 gene expression HFA-Coli/HFA [1]: 1.721 | Ptgs2 gene expression, HFA-Coli [1]: 423.8 | Purb gene expression HFA-Coli/HFA [1]: 2.438 | Purb gene expression, HFA-Coli [1]: 527.8 | Rab6ip1 gene expression HFA-Coli/HFA [1]: 2.725 | Rab6ip1 gene expression, HFA-Coli [1]: 203.0 | Rgs12 gene expression HFA-Coli/HFA [1]: 1.395 | Rgs12 gene expression, HFA-Coli [1]: 152.8 | Rhcg gene expression HFA-Coli/HFA [1]: 1.572 | Rhcg gene expression, HFA-Coli [1]: 286.5 | Rnf12 gene expression HFA-Coli/HFA [1]: 1.234 | Rnf12 gene expression, HFA-Coli [1]: 72.50 | Rpa1 gene expression HFA-Coli/HFA [1]: 1.626 | Rpa1 gene expression, HFA-Coli [1]: 353.8 | Rpl27 gene expression HFA-Coli/HFA [1]: 1.021 | Rpl27 gene expression, HFA-Coli [1]: 1768 | Rwl-pending gene expression HFA-Coli/HFA [1]: 1.623 | Rwl-pending gene expression, HFA-Coli [1]: 490.5 | Serping1 gene expression HFA-Coli/HFA [1]: 1.113 | Serping1 gene expression, HFA-Coli [1]: 153.0 | Sh3glb2 gene expression HFA-Coli/HFA [1]: 1.081 | Sh3glb2 gene expression, HFA-Coli [1]: 578.0 | Siat9 gene expression HFA-Coli/HFA [1]: 1.010 | Siat9 gene expression, HFA-Coli [1]: 1439 | Slc22a1l gene expression HFA-Coli/HFA [1]: 1.054 | Slc22a1l gene expression, HFA-Coli [1]: 1671 | Slc26a1 gene expression HFA-Coli/HFA [1]: 1.302 | Slc26a1 gene expression, HFA-Coli [1]: 203.5 | Srpk2 gene expression HFA-Coli/HFA [1]: 0.480 | Srpk2 gene expression, HFA-Coli [1]: 312.2 | Tacc2 gene expression HFA-Coli/HFA [1]: 2.279 | Tacc2 gene expression, HFA-Coli [1]: 179.5 | Tccr gene expression HFA-Coli/HFA [1]: 0.821 | Tccr gene expression, HFA-Coli [1]: 682.0 | Tcl1 gene expression HFA-Coli/HFA [1]: 1.688 | Tcl1 gene expression, HFA-Coli [1]: 290.2 | Tcp11 gene expression HFA-Coli/HFA [1]: 1.222 | Tcp11 gene expression, HFA-Coli [1]: 536.5 | Thsd1 gene expression HFA-Coli/HFA [1]: 1.373 | Thsd1 gene expression, HFA-Coli [1]: 477.8 | Tiam2 gene expression HFA-Coli/HFA [1]: 7.565 | Tiam2 gene expression, HFA-Coli [1]: 160.8 | Tnfsf13b gene expression HFA-Coli/HFA [1]: 2.153 | Tnfsf13b gene expression, HFA-Coli [1]: 256.8 | Tuba4 gene expression HFA-Coli/HFA [1]: 1.623 | Tuba4 gene expression, HFA-Coli [1]: 799.2 | Ugcg gene expression HFA-Coli/HFA [1]: 0.625 | Ugcg gene expression, HFA-Coli [1]: 1158 | Usp15 gene expression HFA-Coli/HFA [1]: 1.355 | Usp15 gene expression, HFA-Coli [1]: 85.00 | Ybx2 gene expression HFA-Coli/HFA [1]: 1.478 | Ybx2 gene expression, HFA-Coli [1]: 164.8 | Zdhhc3 gene expression HFA-Coli/HFA [1]: 1.710 | Zdhhc3 gene expression, HFA-Coli [1]: 357.8
